Data reported in patent US12558435B2, “Transient inhibition of p53 in gene therapy” (Ospedale San Raffaele S.R.L., priority 2018, dated 2026).

Key:
[1] = system: human CD34+ cells; format: cell-based; settings: for HDR efficiency (GFP+ cells): molecules added one day before viral transduction, FIG. 2B; for editing efficiency by molecular analyses on genomic DNA: human HSPC, FIG. 8B
Method: CD34+ cells were either freshly purified from human CB after obtaining informed consent and upon approval by the Ospedale San Raffaele Bioethical Committee, or purchased frozen from Lonza. CD34+ cells were edited according to a previously optimized protocol (Schiroli et al. 2017 supra).
Briefly, 5×10^5 CD34+ cells/ml were stimulated in serum-free StemSpan medium (StemCell Technologies) supplemented with penicillin, streptomycin, glutamine, 1 μM SR-1 (Biovision), […] (STEMCell Technologies), 10 μM PGE2 added only at the beginning of the culture (Cayman), and human early-acting cytokines (SCF 100 ng/ml, Flt3-L 100 ng/ml, TPO 20 ng/ml, and IL-6 20 ng/ml; all purchased from Peprotech). After 3 days of prestimulation, cells were washed with PBS and electroporated using P3 Primary Cell 4D-Nucleofector X Kit and program EO-100 (Lonza). Cells were electroporated with 2.5-1.25 μM of RNPs.
Transduction with AAV6 was performed at a dose of 1-2×10^4 vg/cell 15′ after electroporation. GSE56 mRNA was utilized were indicated at a dose of 150 μg/ml. Gene editing efficiency was measured from cultured cells in vitro 3 days after electroporation by flow cytometry measuring the percentage of cells expressing the GFP marker or by digital droplet PCR analysis designing primers and probe on the junction between the vector sequence and the targeted locus and on control sequences utilized as normalizer as previously described (Schiroli et al. 2017 supra).
For HDR ddPCR, primers and probes were designed on the junction between the vector sequence and the targeted locus and on control sequences used for normalization (human TTC5 genes). Thermal conditions for annealing and extension were adjusted for each specific application as follows: AAVS1/Intron 1 IL2RG HDR 3′ integration junction ddPCR: 55° C. for 30 sec, 72° C. for 2 min. Primers and probes for PCR and ddPCR amplifications are shown below.
CD34^+ cells were purchased frozen from Lonza. CD34^+ cells were edited according to a previously optimised protocol (Schiroli, G. et al (2017) Sci Transl Med 9). Briefly, 1-5×10^5 CD34^+ cells/ml were stimulated in serum-free StemSpan medium (StemCell Technologies) supplemented with penicillin, streptomycin, glutamine, 1 μM of the arylhydrocarbon receptor antagonist SR-1 (Biovision), […] of the pyrimidoindole-derivative UM171 (STEMCell Technologies), 10 μM of the 15-hydroxy PGDH competitive inhibitor dmPGE-2 added only at the beginning of the culture (Cayman), and human early-acting cytokines (SCF 100 ng/ml, Flt3-L 100 ng/ml, TPO 20 ng/ml, and IL-6 20 ng/ml; all purchased from Peprotech). After 3 days of pre-stimulation, cells were washed with PBS and electroporated using P3 Primary Cell 4D-Nucleofector X Kit and program EO-100 (Lonza). Cells were electroporated with 1-1.2 μM of RNPs. Where specified, electroporation mixture was supplemented with Ad5-E4orf1, Ad5-E4orf6/7 and GSE56/Ad5-E4orf6/7 mRNAs, which were respectively utilized at doses of 120, 80 and 200 μg/ml, or Ad5-E1B55K and Ad5-E4orf6 mRNAs were used at 120 and 80 μg/ml. All other adenoviral protein variants were used at standard dose 120 μg/ml. Transduction with AAV-6 was performed 15 min post-electroporation at dose of 1-5×10^4 vg/cell. Where specified, CD34+ cells were stimulated for shorter time in culture (0, 24 or 48 hours) and edited as described above. Gene editing efficiency was measured from cultured cells in vitro at 4 days post-editing by flow cytometry measuring the percentage of cells expressing the GFP reporter gene or by digital droplet PCR analysis designing primers and probe on the junction between the vector sequence and the targeted locus and on control sequence utilised as normaliser as previously described (Schiroli, G. et al (2017) Sci Transl Med 9) and Schiroli et al., Cell Stem Cell 2019. […]

[2] = system: human CD34+ cells; experiment: Cell growth curve of edited CD34+ cells; format: cell-based
[3] = target: ATM kinase (Homo sapiens, UniProt Q13315); settings: cited from earlier work
[4] = target: ATR (Homo sapiens, UniProt Q13535); settings: cited from earlier work
[5] = DMSO and ethanol; cited from earlier work
[6] = system: human CD34+ cells; experiment: NHEJ by mismatch-sensitive endonuclease (T7 Endonuclease I) assay in edited CD34+ cells; format: cell-based; settings: bulk cells, 3 days after gene editing; FIG. 2C
Method: The percentage of insertions and deletion (indels) introduced by the Non Homologous End Joining (NHEJ) repair pathway on the nucleases target site was measured by a mismatch-sensitive endonuclease assay (PCR-based amplification of the targeted locus followed by digestion with T7 Endonuclease I; digested DNA fragments were resolved and quantified by capillary electrophoresis on LabChip GX Touch HT, Perkin Elmer) The levels of NHEJ-induced mutations were used as surrogate readout for scoring nucleases activity.
For molecular analyses, genomic DNA was isolated with DNeasy Blood & Tissue Kit or QIAamp DNA Micro Kit (QIAGEN) according to the number of cells available. Nuclease activity (IL2RG intron 1, AAVS1) was measured by mismatch-sensitive endonuclease assay by PCR-based amplification of the targeted locus followed by digestion with T7 Endonuclease I (NEB) according to the manufacturer's instructions. Digested DNA fragments were resolved and quantified by capillary electrophoresis on LabChip GX Touch HT (Perkin Elmer) according to the manufacturer's instructions.
For molecular analyses, genomic DNA was isolated with DNeasy Blood & Tissue Kit or QIAamp DNA Micro Kit (QIAGEN) according to the number of cells available. […] Digested DNA fragments were resolved and quantified by capillary electrophoresis on LabChip GX Touch HT (Perkin Elmer) according to the manufacturer's instructions.

[7] = target: T1, ATR (Mus musculus, UniProt Q9JKK8); settings: in 3T3TopBP1-ER cells; cited from earlier work
T1 construct: endogenous in cells; host or cells: 3T3TopBP1-ER cells

[8] = system: human CD34+ cells; experiment: CFU-C / colony forming cell assay of edited CD34+ cells; format: cell-based
[9] = system: human CD34+ cells transplanted into NSG mice; experiment: Xenotransplantation of edited human CD34+ cells in NSG mice; format: in vivo; settings: AAVS1; T0eq=3×10^5/mouse; FIG. 17B
Method: For transplantation, 3×10^5 CD34+ cells treated for editing at day 5 of culture were injected intravenously into NSG mice after sub-lethal irradiation (150-180 cGy). Sample size was determined by the total number of available treated cells. Mice were attributed to each experimental group randomly. Human CD45+ cell engraftment and the presence of gene-edited cells were monitored by serial collection of blood from the mouse tail and, at the end of the experiment (>20 weeks after transplantation), BM and spleen were harvested and analyzed.
NOD-SCID-IL2Rg^−/− (NSG) mice were purchased from The Jackson Laboratory and were maintained in specific-pathogen-free (SPF) conditions. The procedures involving animals were designed and performed with the approval of the Animal Care and Use Committee of the San Raffaele Hospital (IACUC #749) and communicated to the Ministry of Health and local authorities according to Italian law. For transplantation, 1.5-3×10^5 (for primary) or 2×10^6 (for secondary) CD34^+ treated cells at 24 hours post-editing protocol were injected intravenously into NSG mice after sub-lethal irradiation (180 cGy). Sample size was determined by the total number of available treated cells. Mice were attributed to each experimental group randomly. Human CD45^+ cell engraftment and the percentage of edited GFP^+ cells were monitored by serial collection of blood from the mouse tail over the weeks post-transplantation and at the end of the experiment (18-20 weeks post-transplantation) both spleen and bone-marrow were harvested and analysed.

[10] = system: human CD34+ cells; experiment: Cell cycle analysis by Hoechst 33342 staining; format: cell-based; settings: bulk treated cells; 12-24 hours; FIG. 14H
Method: Cell cycle was analysed by flow cytometry (CytoFLEX LX; Beckman Coulter) at 12-24 hours post-editing by collecting 0.5-1×10^5 total HSPCs in culture. Cells were washed with PBS+2% FBS and stained by using 10 μg/ml Hoechst 33342 (Sigma-Aldrich) in PBS+2% FBS for 0.5-1 hour in final volume equal to 200 μl.

Chain of ATR (Homo sapiens, UniProt Q13535) (Q13535 whole entry): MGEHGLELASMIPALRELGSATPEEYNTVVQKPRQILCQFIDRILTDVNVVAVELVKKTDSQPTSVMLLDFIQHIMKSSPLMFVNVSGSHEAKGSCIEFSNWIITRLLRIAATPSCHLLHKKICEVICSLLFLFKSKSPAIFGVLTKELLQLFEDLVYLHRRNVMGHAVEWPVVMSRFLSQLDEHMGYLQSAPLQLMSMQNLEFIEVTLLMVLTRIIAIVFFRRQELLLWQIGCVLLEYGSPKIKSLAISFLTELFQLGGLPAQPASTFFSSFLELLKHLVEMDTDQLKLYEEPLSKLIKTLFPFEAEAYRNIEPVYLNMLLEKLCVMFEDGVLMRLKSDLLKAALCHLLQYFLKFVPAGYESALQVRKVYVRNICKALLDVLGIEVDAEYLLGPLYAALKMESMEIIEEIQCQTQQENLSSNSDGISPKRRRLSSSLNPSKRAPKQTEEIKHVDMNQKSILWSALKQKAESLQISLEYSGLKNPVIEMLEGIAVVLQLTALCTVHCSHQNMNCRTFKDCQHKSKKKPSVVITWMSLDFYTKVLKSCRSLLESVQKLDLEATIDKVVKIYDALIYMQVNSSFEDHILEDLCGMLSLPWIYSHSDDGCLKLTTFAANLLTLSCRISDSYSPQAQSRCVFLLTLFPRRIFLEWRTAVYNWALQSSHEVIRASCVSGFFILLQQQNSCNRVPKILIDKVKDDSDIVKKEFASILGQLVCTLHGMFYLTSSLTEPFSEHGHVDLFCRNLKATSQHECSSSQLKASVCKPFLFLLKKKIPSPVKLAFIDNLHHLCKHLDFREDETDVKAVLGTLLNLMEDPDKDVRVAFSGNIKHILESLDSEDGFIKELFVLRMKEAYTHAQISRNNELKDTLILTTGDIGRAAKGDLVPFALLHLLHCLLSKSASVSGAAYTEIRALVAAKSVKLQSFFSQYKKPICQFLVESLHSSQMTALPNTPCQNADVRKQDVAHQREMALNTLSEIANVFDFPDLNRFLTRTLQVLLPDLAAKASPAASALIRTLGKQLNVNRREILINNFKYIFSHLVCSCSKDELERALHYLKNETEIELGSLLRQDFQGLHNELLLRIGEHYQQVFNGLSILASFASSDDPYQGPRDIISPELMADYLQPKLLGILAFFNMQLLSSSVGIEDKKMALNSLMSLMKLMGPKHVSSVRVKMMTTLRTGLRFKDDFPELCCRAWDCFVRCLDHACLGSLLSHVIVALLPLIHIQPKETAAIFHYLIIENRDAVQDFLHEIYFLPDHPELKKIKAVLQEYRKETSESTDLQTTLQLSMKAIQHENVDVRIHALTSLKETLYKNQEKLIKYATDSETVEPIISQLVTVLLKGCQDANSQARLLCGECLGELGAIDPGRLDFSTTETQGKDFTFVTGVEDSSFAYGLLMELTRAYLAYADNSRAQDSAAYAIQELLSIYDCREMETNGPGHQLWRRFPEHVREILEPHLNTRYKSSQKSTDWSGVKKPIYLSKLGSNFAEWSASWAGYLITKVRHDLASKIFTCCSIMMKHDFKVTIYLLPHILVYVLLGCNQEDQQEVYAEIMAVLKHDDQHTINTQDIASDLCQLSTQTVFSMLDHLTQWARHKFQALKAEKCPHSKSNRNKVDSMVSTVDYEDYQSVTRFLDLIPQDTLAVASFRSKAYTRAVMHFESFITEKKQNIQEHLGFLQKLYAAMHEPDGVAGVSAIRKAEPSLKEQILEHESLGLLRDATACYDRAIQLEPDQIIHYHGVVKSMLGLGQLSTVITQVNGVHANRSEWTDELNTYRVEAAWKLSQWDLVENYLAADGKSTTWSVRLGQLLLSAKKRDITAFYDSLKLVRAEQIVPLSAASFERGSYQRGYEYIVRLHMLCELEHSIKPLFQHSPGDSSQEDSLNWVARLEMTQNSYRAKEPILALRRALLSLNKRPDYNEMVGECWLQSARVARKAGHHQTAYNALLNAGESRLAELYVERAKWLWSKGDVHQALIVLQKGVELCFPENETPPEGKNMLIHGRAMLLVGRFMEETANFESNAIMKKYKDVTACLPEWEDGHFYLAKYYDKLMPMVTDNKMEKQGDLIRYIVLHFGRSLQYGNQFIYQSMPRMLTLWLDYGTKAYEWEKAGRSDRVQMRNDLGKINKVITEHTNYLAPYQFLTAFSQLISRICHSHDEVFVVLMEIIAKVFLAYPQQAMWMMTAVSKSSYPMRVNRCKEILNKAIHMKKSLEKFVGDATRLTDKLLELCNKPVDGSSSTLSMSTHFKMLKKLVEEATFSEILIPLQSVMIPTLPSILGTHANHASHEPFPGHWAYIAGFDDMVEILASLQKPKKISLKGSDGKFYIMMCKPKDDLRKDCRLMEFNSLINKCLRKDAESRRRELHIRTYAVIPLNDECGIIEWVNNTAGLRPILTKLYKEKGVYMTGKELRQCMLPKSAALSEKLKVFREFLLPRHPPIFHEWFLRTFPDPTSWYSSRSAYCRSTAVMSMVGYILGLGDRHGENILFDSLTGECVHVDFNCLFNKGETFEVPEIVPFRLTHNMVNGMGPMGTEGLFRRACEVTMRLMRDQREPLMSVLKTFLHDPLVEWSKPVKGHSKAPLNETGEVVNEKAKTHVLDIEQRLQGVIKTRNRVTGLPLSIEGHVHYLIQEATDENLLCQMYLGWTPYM
Chain of ATR (Homo sapiens, UniProt Q13535) (Q8WXE1 whole entry partner): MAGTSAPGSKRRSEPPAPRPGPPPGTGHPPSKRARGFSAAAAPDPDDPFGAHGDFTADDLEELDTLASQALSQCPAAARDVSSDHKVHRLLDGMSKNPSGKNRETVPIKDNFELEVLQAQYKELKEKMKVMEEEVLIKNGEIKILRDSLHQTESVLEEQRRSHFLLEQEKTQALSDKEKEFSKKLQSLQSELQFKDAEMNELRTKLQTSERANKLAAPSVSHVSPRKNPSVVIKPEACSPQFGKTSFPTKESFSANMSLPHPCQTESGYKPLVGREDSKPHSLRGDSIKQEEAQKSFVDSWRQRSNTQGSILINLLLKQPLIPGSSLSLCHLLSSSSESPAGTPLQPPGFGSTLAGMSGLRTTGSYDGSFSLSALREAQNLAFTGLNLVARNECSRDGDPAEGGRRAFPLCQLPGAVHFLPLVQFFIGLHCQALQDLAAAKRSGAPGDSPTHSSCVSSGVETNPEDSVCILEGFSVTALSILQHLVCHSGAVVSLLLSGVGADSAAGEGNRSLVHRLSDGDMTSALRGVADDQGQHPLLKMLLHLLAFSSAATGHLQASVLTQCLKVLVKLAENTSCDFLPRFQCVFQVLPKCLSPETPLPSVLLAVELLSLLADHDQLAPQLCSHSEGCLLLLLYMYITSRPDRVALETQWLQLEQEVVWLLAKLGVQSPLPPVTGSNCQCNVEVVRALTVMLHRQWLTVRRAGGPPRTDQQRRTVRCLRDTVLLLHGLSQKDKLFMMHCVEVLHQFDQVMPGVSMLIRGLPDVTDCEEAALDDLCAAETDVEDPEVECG

Q: With `Cc1ccc(C(=O)Cn2c3c(sc2=N)CCCC3)cc1` [pifithrin-α, reference compound] as the molecule, how does the “HDR efficiency (GFP+ cells)” value ([1]; 3 days after gene editing) read?
A: increase in HDR efficiency

Q: For “E1B55K and E4orf6: combination of adenoviral proteins E1B55K (SEQ ID No. 15) and E4orf6 (SEQ ID No. 13), delivered as mRNAs”, which “GFP expression from the AAV6 donor” value ([1]; FIG. 15A) is on record?
A: increased significantly the GFP expression

Q: What about the “HDR-mediated integrations at the targeted AAVS1 locus compared to standard” value ([1]; FIG. 15B) of the same molecule?
A: reducing HDR-mediated integrations

Q: And the “editing efficiency by molecular analyses on genomic DNA” value [1]?
A: not effective in increasing the editing efficiency

Q: What about the “transient increase in the fraction of GFP+ cells” value ([1]; mainly most primitive HSPC compartment, AAVS1, FIG. 8A) of the same molecule?
A: up to 1.45 fold

Q: What about the “growth curve of treated cells” value ([2]; FIG. 8D) of the same molecule?
A: lower compared to the standard

Q: For `O=C(NC(NC(=S)Nc1ccc(F)c([N+](=O)[O-])c1)C(Cl)(Cl)Cl)C(c1ccccc1)c1ccccc1` (stereo not shown) [CGK 733], which IC50 [3] is on record?
A: ~0.2 µM

Q: And the IC50 [4]?
A: ~0.2 µM

Q: Which solubility [5] does the source give for `O=c1cc(-c2cccc3c2Sc2ccccc2S3)oc(N2CCOCC2)c1` [KU-55933] here?
A: soluble in DMSO and ethanol

Q: With `N=c1sc2c(n1CC(=O)c1ccc([N+](=O)[O-])cc1)CCCC2` [pifithrin-α p-nitro, reference compound] as the molecule, how does the “HDR efficiency (GFP+ cells)” value ([1]; 3 days after gene editing) read?
A: increase in HDR efficiency

Q: Which cellular toxicity [1] does the source give for `Cc1ccc(-c2cn3c4c(sc3n2)CCCC4)cc1` [pifithrin-α cyclic, reference compound] here?
A: lowest cellular toxicity

Q: And the “increase in gene editing in the most primitive CD34+ CD133+ CD90+ cell compartment” value ([1]; 3 days after gene editing, FIG. 2C)?
A: two-fold

Q: What about the “HDR efficiency (GFP+ cells)” value ([1]; 3 days after gene editing) of the same molecule?
A: increase in HDR efficiency

Q: And the “increase in DNA repair by NHEJ” value [6]?
A: two-fold

Q: Which IC50 [7] does the source give for `Cn1c(=O)n(-c2ccc(C(C)(C)C#N)cc2)c2c3cc(-c4cnc5ccccc5c4)ccc3ncc21` [BEZ235] here?
A: ~0.021 µM

Q: With `COc1cc2ncnc(-n3nc(-c4ccccn4)nc3N)c2cc1OC` [CP-466722] as the molecule, how does the “effect on ATR” value [4] read?
A: does not affect ATR

B1: E4orf1: adenoviral protein from adenovirus serotype 5 E4 gene (SEQ ID No. 1), delivered as mRNA (protein)
chain: MAAAVEALYVVLEREGAILPRQEGFSGVYVFFSPINFVIPPMGAVMLSLRLRVCIPPGYFGRFLALTDVNQPDVFTESYIMTPDMTEELSVVLFNHGDQFFYGHAGMAVVRLMLIRVVFPVVRQASNV
modifications: delivered as mRNA; example amino acid sequence of Ad5-E4orf1
Q: With B1 as the molecule, how does the “targeting efficiency versus mRNA dose” value ([1]; AAVS1, different mRNA doses, FIG. 6D) read?
A: dose dependent increase in the targeting efficiency

Q: What about the “increase of GFP expression compared to standard RNP+AAV6” value ([1]; AAVS1, most primitive compartment (CD34+133+90+ / CD90+), 96 hours, FIG. 14C) of the same molecule?
A: up to 1.3 fold

Q: And the “mean increase in the percentage of targeted primitive HSPC” value ([1]; best performing mRNA dose, AAVS1, FIG. 6D)?
A: 1.5 fold

Q: What about the “editing efficiency by molecular analyses on genomic DNA” value [1] of the same molecule?
A: reproducibly able to boost editing

Q: What about the “mean increase in the fraction of GFP+ cells compared to the standard” value ([1]; side-by-side, AAVS1, 4 days, FIG. 7A) of the same molecule?
A: 1.2 fold

Q: What about the “increase in number of myeloid and erythroid colony forming units (CFU) compared to standard” value ([8]; FIG. 7C) of the same molecule?
A: 3 fold

Q: And the “erythroid and myeloid clonogenic output compared to standard protocol” value ([8]; FIG. 14G)?
A: improved

Q: And the number of colonies ([8]; among E4orf1 serotype variants, FIG. 21D)?
A: highest number of colonies

Q: And the “growth curve of treated cells compared to standard and E4orf6/7 alone” value ([2]; FIG. 7D)?
A: 4 fold

Q: What about the “cell growth compared to standard RNP+AAV6” value ([2]; days post-editing, FIG. 14B) of the same molecule?
A: about 2 fold

Q: What about the “human CD45+ cell engraftment in bloodstream, between groups” value [9] of the same molecule?
A: did not show any statistical significance

Q: What about the “cell cycle states (G1 to S/G2/M)” value [10] of the same molecule?
A: lower and not significant
